Assay results as given in ChEMBL document CHEMBL1154806, “Indole derivatives from a marine sponge-derived yeast as DPPH radical scavengers” (J Nat Prod, 2009).
Calls of active or inactive are those of the source. No cut-off for these calls is given here.

Experiments:
Format in all cases: functional
[1] = Antioxidant activity assessed as ABTS radical scavenging activity
[2] = test system: Radical scavenging activity; test: Antioxidant activity assessed as DPPH radical scavenging activity at 300 uM after 48 hrs by spectrophotometry
[3] = Antioxidant activity assessed as oxygen radical scavenging activity by ORAC assay

| Compound | Activity [1] | Activity [2] | Activity [3] |
| --- | --- | --- | --- |
| OCCc1c[nH]c2ccccc12 | Active | 52% | – |
| O=C1N[C@@H](Cc2ccc(O)cc2)C(=O)N2CCC[C@@H]12 | – | 16% | – |
| Cc1cc(C(C)(C)C)c(O)c(C(C)(C)C)c1 | – | 86% | – |
| O=C(CCCCO)OCCc1c[nH]c2ccccc12 | – | 47% | – |
| CC(O)C(=O)OCCc1c[nH]c2ccccc12 (stereo not drawn) | – | 33% | – |
| OCCc1ccc(O)cc1 | – | 26% | Active |
